# Data taken from article PMC9822014, “Antibacterial Thiopeptide GE2270-Congeners from Nonomuraea jiangxiensis” (Molecules, 2022).
# “Also recorded” adds a separate entry of the source. Where two headings read alike, the source gives them in different places.
# Legend:
# [1] = test system: Staphylococcus aureus Rosenbach (ATCC 25923); experiment: Antibacterial microbroth dilution MIC/MBC against S. aureus; type: cell-based; settings: S. aureus Rosenbach ATCC 25923; for Relative antibacterial activity compared with another compound: 1 versus 2, 9 versus 8; for MIC / MIC90 / MBC90 (minimal bactericidal concentration) / MBC: Staphylococcus aureus; for MIC: ATCC25923, 24 h; for MIC90 / MBC90 (minimal bactericidal concentration) / MBC: ATCC25923; for MBC90 (minimal bactericidal concentration): read-out: MBC (IC90) / minimal bactericidal concentration (MBC90); for MBC: treated culture transferred to new media, read-out: MBC90 [(μM) mean ± SD]
# Protocol: The minimum inhibition concentration (MIC) and the minimum bactericidal/fungicidal concentration (MBC/MFC) were carried out using the microbroth dilution method according to the Clinical Laboratory Standards Institute (CLSI) guidelines, with some modifications. […] The tested compounds were then incubated together with bacterial cells at 37 °C for 24 h and with fungal spores at 25 °C for 72 h, respectively. The OD600 measurements were subsequentially carried out to evaluate the inhibitory effect of the compounds. To further determine the bactericidal and fungicidal effects of the compounds, 5 µL of the treated culture was transferred onto new media microplates. The plates were incubated under the same condition, followed by the OD600 measurement. […] The cells were then treated with the compounds for 72 h at 37 °C in the presence of 5% CO2. Any Cytotoxic effect was detected with PrestoBlue™ cell viability reagent (ThermoFisher Scientific, Waltham, MA, USA). The cells were read with a fluorescence reading at an excitation of 560 nm and an emission 590 nm. Standard inhibitors, gentamicin (Gibco, Waltham, MA, USA), amphotericin (Sigma-Aldrich, St. Louis, MO, USA) and puromycin (Sigma-Aldrich, St. Louis, MO, USA) were used as the assay controls for the antibacterial, antifungal and cytotoxicity assay. […] GraphPad Prism 8 software (GraphPad, San Diego, CA, USA) was used for the analysis of the bioactivity to determine the respective IC90 and IC50 values.
# [2] = test system: Clostridium difficile infections; design: method as in PMID 25534727, PMID 22315981; settings: phase 2 clinical trial, humans; cited from earlier work
# [3] = Figure 5, read-out: MIC (IC90) / minimal inhibitory concentration (MIC90)
# [4] = 37 °C, 24 h, OD600, mean ± SD, triplicates, read-out: MIC90 [(μM) mean ± SD]
Compound,Antibacterial activity against S. aureus (in words) [1],Relative antibacterial activity compared with another compound [1],"MIC [1, 3] [µM]","MIC90 [1, 4] [µM]",MBC90 (minimal bactericidal concentration) ([1]; Figure 5) [µM],"MIC90 [1, 3] [µM]","MBC ([1]; OD600, mean ± SD, triplicates) [µM]",Recurrence rates versus vancomycin [2]
"CNC(=O)CC1NC(=O)c2csc(n2)-c2ccc(-c3nc(C4=NC(C(=O)N5CCCC5C(=O)O)CO4)cs3)nc2-c2csc(n2)-c2csc(n2)C(C(O)c2ccccc2)NC(=O)CNC(=O)c2nc(sc2COC)C(C(C)C)NC(=O)c2nc1sc2C (centres unmarked) [Compound 1, GE2270F1]",displayed activities,three-fold more active,2.63,2.63 ± 0.12,18.5,2.63,18.5 ± 1.34,
"CNC(=O)CC1NC(=O)c2csc(n2)-c2ccc(-c3nc(C4=NC(C(=O)N5CCCC5C(=O)O)CO4)cs3)nc2-c2csc(n2)-c2csc(n2)C(C(O)c2ccccc2)NC(=O)CNC(=O)c2csc(n2)C(C(C)C)NC(=O)c2nc1sc2C (centres unmarked) [Compound 2, GE2270F2]",displayed activities,,,6.94 ± 0.83,67.9,6.94,67.9 ± 1.55,
"CNC(=O)CC1NC(=O)c2csc(n2)-c2ccc(-c3nc(C4=NC(C(=O)N5CCCC5C(=O)O)CO4)cs3)nc2-c2csc(n2)-c2csc(n2)C(C(O)c2ccccc2)NC(=O)CNC(=O)c2csc(n2)C(C(C)C)NC(=O)c2csc1n2 (centres unmarked) [Compound 3, GE2270F3]",inactive; also recorded: no bioactivity,,2 to 11,> 70,> 70,> 70,> 70,
"CNC(=O)CC1NC(=O)c2csc(n2)-c2ccc(-c3nc(C4=NC(C(=O)N5CCCC5C(=O)O)CO4)cs3)nc2-c2csc(n2)-c2csc(n2)C(C(O)c2ccccc2)NC(=O)CNC(=O)c2nc(sc2COC)C(C(C)C)NC(=O)c2csc1n2 (centres unmarked) [Compound 4, GE2270F4]",inactive; also recorded: no bioactivity,,2 to 11,> 70,> 70,> 70,> 70,
CNC(=O)C[C@@H]1NC(=O)c2csc(n2)-c2ccc(-c3nc(C(=O)N[C@@H](CO)C(=O)N4CCC[C@H]4C(N)=O)cs3)nc2-c2csc(n2)-c2csc(n2)[C@H]([C@@H](O)c2ccccc2)NC(=O)CNC(=O)c2csc(n2)[C@H](C(C)C)NC(=O)c2nc1sc2C [Compound 5],inactive,,2 to 11,> 70,> 70,> 70,> 70,
CNC(=O)C[C@@H]1NC(=O)c2csc(n2)-c2ccc(-c3nc(C(=O)N[C@@H](CO)C(=O)N4CCC[C@H]4C(N)=O)cs3)nc2-c2csc(n2)-c2csc(n2)[C@H]([C@@H](O)c2ccccc2)NC(=O)CNC(=O)c2nc(sc2COC)[C@H](C(C)C)NC(=O)c2nc1sc2C [Compound 6],displayed activities; also recorded: demonstrated antibacterial activity,,2 to 11,7.07 ± 0.55,,7.07,,
CNC(=O)C[C@@H]1NC(=O)c2csc(n2)-c2ccc(-c3nc(C(=O)OC)cs3)nc2-c2csc(n2)-c2csc(n2)[C@H]([C@@H](O)c2ccccc2)NC(=O)CNC(=O)c2csc(n2)[C@H](C(C)C)NC(=O)c2nc1sc2C [Compound 7],displayed activities,,,4.71 ± 0.37,12.4,4.71,12.4 ± 1.06,
CNC(=O)C[C@@H]1NC(=O)c2csc(n2)-c2ccc(-c3nc(C(=O)OC)cs3)nc2-c2csc(n2)-c2csc(n2)[C@H]([C@@H](O)c2ccccc2)NC(=O)CNC(=O)c2nc(sc2COC)[C@H](C(C)C)NC(=O)c2nc1sc2C [Compound 8],displayed activities,,3.17,3.17 ± 0.28,16.2,3.17,16.2 ± 1.48,
CNC(=O)C[C@@H]1NC(=O)c2csc(n2)-c2ccc(-c3nc(C(=O)O)cs3)nc2-c2csc(n2)-c2csc(n2)[C@H]([C@@H](O)c2ccccc2)NC(=O)CNC(=O)c2nc(sc2COC)[C@H](C(C)C)NC(=O)c2nc1sc2C [Compound 9],displayed activities,at least a three-fold reduction,,10.3 ± 0.75,52,10.3,52 ± 1.41,
"CNC(C)C1CCC(N)C(OC2C(N)CC(N)C(OC3OCC(C)(O)C(NC)C3O)C2O)O1 (centres unmarked) [Gentamicin, gentamicin, reference compound]",,,,0.04 ± 0.01,0.1,0.04,0.1 ± 0.01,
CNC(=O)C[C@@H]1NC(=O)c2csc(n2)-c2ccc(-c3nc(N(CCCCC(=O)O)C(=O)O[C@H]4CC[C@H](C(=O)O)CC4)cs3)nc2-c2csc(n2)-c2csc(n2)[C@H]([C@@H](O)c2ccccc2)NC(=O)CNC(=O)c2nc(sc2COC)[C@H](C(C)C)NC(=O)c2nc1sc2C [LFF571],,,,,,,,higher recurrence rates than conventional antibiotics treatment with vancomycin
